Columns and labels:
S. typhimurium TA 1535 = experiment: Oxygen uptake of S. typhimurium TA 1535 cultures in minimal histidine medium, oxygen electrode (mutagen screening); type: cell-based, Salmonella typhimurium; details: flasks 3 and 4
Text: In the device illustrated in FIG. 1, two conventional oxygen electrodes, 10, 11, of the Clark type are employed. […] Electrode 11, designated the test electrode, measures the respiration rate (O2 uptake) of the same fixed volume 13 and concentration of Ames test bacteria and media as the control electrode. In the second case, the media also contains the chemical to be evaluated. If the chemical is a carcinogen or mutagen, the O2 uptake of test electrode 11 will increase at a faster rate than that of the control. This occurs because the reversion rate, and thus the growth rate and O2 consumption rate will be higher in the test electrode 11 than in the control electrode 10. Conversely, if the chemical is not a carcinogen or a mutagen, the O2 uptake rates will be similar. Thus, by measuring the difference in O2 uptake rates between a control and a test electrode, the potential carcinogenicity and/or mutagenicity of a chemical can be evaluated. […]
The test organism, S. typhimurium TA 1535 is grown overnight, washed three times in phosphate buffer and resuspended to give OD of 0.8 (>10^8 per ml). […] At zero, four, and 32 hours, 1 ml of culture is added to 2 ml of aerated minimal glucose media in the test chamber of an oxygen electrode and the rate of oxygen uptake is measured.

S. typhimurium TA 1530 = details: cited from earlier work
Saccharomyces cerevsiae = details: cited from earlier work
[1] = tested on: oxidative phosphorylation; details: cited from earlier work; for uncoupling: higher concentrations than 10^-9 M; for stimulation of respiration and ATP production: low concentrations (10^-9 M)

Nc1c2ccccc2nc2ccccc12 [9-amine acridine]
oxygen uptake, dependence on mutagen level (S. typhimurium TA 1535): dependent upon the level of the added known mutagen

O=C(O)[C@@H]1CCN1 [L-azetidine carboxylic acid]
toxicity to mutant form (S. typhimurium TA 1530; mutant form of S. typhimurium TA 1530): not toxic to its mutant form
toxicity to normal form (S. typhimurium TA 1530; normal form of S. typhimurium TA 1530): toxic to the normal form

NC(N)=NOCC[C@H](N)C(=O)O.O=S(=O)(O)O [cavanine sulfate]
toxicity to mutant form (Saccharomyces cerevsiae; mutant form of yeast): not to its mutant form
toxicity to normal form (Saccharomyces cerevsiae; normal form of yeast): toxic to the normal form

N[C@@H](Cc1cc(I)c(Oc2cc(I)c(O)c(I)c2)c(I)c1)C(=O)O [thyroxine]
uncoupling [1]: uncouple at higher concentrations
stimulation of respiration and ATP production [1]: stimulate respiration and ATP production

N[C@@H](Cc1cc(I)c(Oc2ccc(O)c(I)c2)c(I)c1)C(=O)O [triiodothyronine]
uncoupling [1]: uncouple at higher concentrations
stimulation of respiration and ATP production [1]: stimulate respiration and ATP production
